By melting point is commonly meant the temperature of the solid-liquid transition.

The source of these data is patent US6337344B1, “Indole derivatives as inhibitors or factor Xa” (Aventis Pharma Deutschland GmbH, priority 1997, dated 2002).

Structures are written as SMILES. Where a name gives a salt, the structure may show the parent alone.

On to `CN(C)c1ccc(CNC(=O)c2cn(Cc3cccc(C(=N)N)c3)c3ccccc23)cc1.O=C(O)C(F)(F)F.O=C(O)C(F)(F)F`, for which the melting point was in the range of 92 to 96 °C.

`C[N+](C)(C)c1ccc(CNC(=O)c2cn(Cc3cccc(C(=N)N)c3)c3ccccc23)cc1.O=C(O)C(F)(F)F.O=C([O-])C(F)(F)F`: the melting point is 177 °C (dec.).

For `CC(=O)O.C[C@@H](NC(=O)c1cc2cc(OCc3ccccc3)ccc2n1Cc1cccc(C(=N)N)c1)c1ccccc1`, the melting point is 72 °C (dec.).

Regarding `CC(=O)O.N=C(N)c1cccc(Cn2c(C(=O)NCc3ccccc3)cc3ccccc32)c1`, the melting point is 266 to 268 °C (dec.).

With `COc1cccc2c1cc(C(=O)NCCc1ccc(O)cc1)n2Cc1cccc(C(=N)N)c1.O=C(O)C(F)(F)F`, the melting point was 140 to 142 °C.

Regarding `N=C(N)c1cccc(COC(=O)c2cc3ccccc3n2Cc2cccc(C(=N)N)c2)c1.O=C(O)C(F)(F)F.O=C(O)C(F)(F)F`, the melting point was 258 °C.

For the molecule `N=C(N)c1cccc(Cn2c(C(=O)NCc3ccc(Cl)cc3)cc3ccccc32)c1.O=C(O)C(F)(F)F`, the melting point is 230 °C (dec.).

As for `Cc1cccc2c1cc(C(=O)NCc1ccc([N+](C)(C)Cc3ccccc3)cc1)n2Cc1cccc(C(=N)N)c1.O=C(O)C(F)(F)F.O=C([O-])C(F)(F)F`, the melting point was 113 °C (dec.).

As to `CC[N+](C)(C)c1ccc(CNC(=O)c2cc3cc(F)ccc3n2Cc2cccc(C(=N)N)c2)cc1.O=C(O)C(F)(F)F.O=C([O-])C(F)(F)F`, the melting point is 73 to 75 °C (dec.).

In the case of `CN(C)c1ccc(CNC(=O)c2cc3cc(F)ccc3n2Cc2cccc(C(=N)N)c2)cc1.O=C(O)C(F)(F)F.O=C(O)C(F)(F)F`, the melting point is 90 °C (dec.).

As to `CC(=O)O.CC(=O)[O-].C[N+](C)(C)c1ccc(CNC(=O)c2cc3cc(F)ccc3n2Cc2cccc(C(=N)N)c2)cc1`, the melting point was 172 °C (dec.).

`C[N+](C)(C)c1ccc(CNC(=O)c2cc3cc(F)ccc3n2Cc2cccc(C(=N)N)c2)cc1.O=C(O)C(F)(F)F.O=C([O-])C(F)(F)F` yielded a melting point of 120 to 124 °C.

For `Cc1cccc2c1cc(C(=O)NCc1ccc(N(C)C)cc1)n2Cc1cccc(C(=N)N)c1.O=C(O)C(F)(F)F.O=C(O)C(F)(F)F`, the melting point was 106 °C (dec.).

Take `C[N+](C)(C)c1ccc(CNC(=O)c2cc3cc([N+](=O)[O-])ccc3n2Cc2cccc(C(=N)N)c2)cc1.O=C(O)C(F)(F)F.O=C([O-])C(F)(F)F`: the melting point was 120 °C (dec.).

Consider `C[N+](C)(C)c1ccc(CNC(=O)c2cc3cc(N)ccc3n2Cc2cccc(C(=N)N)c2)cc1.O=C(O)C(F)(F)F.O=C(O)C(F)(F)F.O=C([O-])C(F)(F)F`, for which the melting point is 114 °C (dec.).

For `CC(=O)O.C[N+](C)(C)c1ccc(CNC(=O)c2cc3cc(S(C)(=O)=O)ccc3n2Cc2cccc(C(=N)N)c2)cc1.O=C([O-])C(F)(F)F`, the melting point was 70 °C (dec.).

Consider `CC(=O)O.CC(=O)[O-].COc1ccc2c(c1)cc(C(=O)NCc1ccc([N+](C)(C)C)cc1)n2Cc1cccc(C(=N)N)c1`, for which the melting point is 94 °C (dec.).

In the case of `COc1cccc2c1cc(C(=O)NCCc1cc[n+](C)cc1)n2Cc1cccc(C(=N)N)c1.O=C(O)C(F)(F)F.O=C([O-])C(F)(F)F`, the melting point is 164 °C (dec.).

In the case of `CC(=O)O.CCOC(=O)c1cc2c(C)cccc2n1Cc1cccc(C(=N)N)c1`, the melting point was 187 °C (dec.).

As to `Cl.N=C(N)c1ccc(Cn2c(C(=O)NCc3ccccc3)cc3ccccc32)cc1`, the melting point was 266 to 268 °C (dec.).

Consider `N=C(N)c1cccc(Cn2c(C(N)=O)cc3ccccc32)c1.O=C(O)C(F)(F)F`, for which the melting point was 278 °C (dec.).

Turning to `N=C(N)c1ccc(Cn2c(C(=O)NCc3ccc(Cl)cc3)cc3ccccc32)cc1.O=C(O)C(F)(F)F`, the melting point is 268 °C (dec.).

Regarding `CC(=O)O.CC(=O)[O-].C[N+](C)(C)c1ccc(CNC(=O)c2cc3cc(F)ccc3n2Cc2cccc(C3=NCCN3)c2)cc1`, the melting point is 51 °C (dec.).

Molecule `COc1cccc2c1cc(C(=O)NCCc1ccncc1)n2Cc1cccc(/C(N)=N/O)c1.Cl.Cl` gave a melting point of 215 to 217 °C.

Consider `C[N+](C)(C)c1ccc(CNC(=O)c2cc3cc(Cl)ccc3n2Cc2cccc(C(=N)N)c2)cc1.O=C(O)C(F)(F)F.O=C([O-])C(F)(F)F`, for which the melting point is 112 °C (dec.).

As for `C[N+](C)(C)c1ccc(CNC(=O)c2cc3cc(O)ccc3n2Cc2cccc(C(=N)N)c2)cc1.O=C(O)C(F)(F)F.O=C([O-])C(F)(F)F`, the melting point was 78 °C (dec.).

`C[N+](C)(Cc1ccccc1)c1ccc(CNC(=O)c2cc3cc(F)ccc3n2Cc2cccc(C(=N)N)c2)cc1.Cl.[Cl-]`: the melting point came to 136 °C.

In the case of `C=CC[N+](C)(C)c1ccc(CNC(=O)c2cc3cc(F)ccc3n2Cc2cccc(C(=N)N)c2)cc1.CC(=O)O.[Cl-]`, the melting point is 133 °C (dec.).

Consider `C#CC[N+](C)(C)c1ccc(CNC(=O)c2cc3cc(F)ccc3n2Cc2cccc(C(=N)N)c2)cc1.CC(=O)O.CC(=O)[O-]`, for which the melting point was 109 °C (dec.).

Regarding `CC(=O)O.CC(=O)O.Cc1cccc2c1cc(C(=O)OCc1cccc(C(=N)N)c1)n2Cc1cccc(C(=N)N)c1`, the melting point is 53 °C (dec.).

Consider `CC(=O)O.CC(=O)[O-].Cc1cccc2c1cc(C(=O)NCc1ccc([N+](C)(C)C)cc1)n2Cc1cccc(C(=N)N)c1`, for which the melting point was 89 °C (dec.).

`COc1cccc2c1cc(C(=O)NCc1ccc(O)cc1)n2Cc1cccc(C(=N)N)c1.Cl`: the melting point is 202 °C (dec.).

On to `CC(=O)O.CC(=O)O.N=C(N)c1cccc(COC(=O)c2cc3cc(OCc4ccccc4)ccc3n2Cc2cccc(C(=N)N)c2)c1`, for which the melting point was 147 °C (dec.).

In the case of `N=C(N)c1cccc(CNC(=O)c2cc3cc(O)ccc3n2Cc2cccc(C(=N)N)c2)c1.O=C(O)C(F)(F)F.O=C(O)C(F)(F)F`, the melting point was 125 °C (dec.).

`CC(=O)O.CC(=O)[O-].C[N+](C)(C)c1ccc(CNC(=O)c2cc3c(Br)cccc3n2Cc2cccc(C(=N)N)c2)cc1`: the melting point was 145 °C (dec.).

On to `CC(=O)O.CC(=O)[O-].C[N+](C)(C)c1ccc(CNC(=O)c2cc3cc(Br)ccc3n2Cc2cccc(C(=N)N)c2)cc1`, for which the melting point was 86 °C (dec.).

In turn, `CN(C)c1ccc(CNC(=O)c2cc3ccccc3n2Cc2cccnc2)cc1` had a melting point of 108 to 110 °C.

`C[n+]1ccc(CNC(=O)c2cc3cc(N)ccc3n2Cc2cccc(C(=N)N)c2)cc1.O=C(O)C(F)(F)F.O=C(O)C(F)(F)F.O=C([O-])C(F)(F)F`: the melting point worked out at 115 °C.

Take `N=C(N)c1cccc(Cn2c(C(=O)NCCc3ccc(Cl)cc3Cl)cc3c(O)cccc32)c1.O=C(O)C(F)(F)F`: the melting point stood at 144 °C.

For `N=C(N)c1cccc(CNC(=O)Cc2cn(Cc3cccc(C(=N)N)c3)c3ccccc23)c1.O=C(O)C(F)(F)F.O=C(O)C(F)(F)F`, the melting point is 196 °C (dec.).

As for `N=C(N)c1cccc(CNC(=O)c2cc3cc(OCc4ccccc4)ccc3n2Cc2cccc(C(=N)N)c2)c1` (as salt: hydroiodid) [Example 59, 1-(3-Amidino-benzyl)-5-benzyloxy-1H-indole-2-carboxylic acid 3-amidino-benzylamide dihydroiodide], the melting point was 138 °C (dec.).

For `C[N+](C)(C)c1ccc(CNC(=O)c2c(Cl)c3ccccc3n2Cc2cccc(C(=N)N)c2)cc1` (as salt: trifluoroacetic acid salt) [Example 106], the melting point stood at 57 °C.
